This note sets out measurements from patent US20230382863A1, “MEK INHIBITORS AND USES THEREOF” (Ikena Oncology, Inc., priority 2022, published 2023).

One data set deals with MEK1-CRAF complex (Homo sapiens (Human), UniProt Q02750). Description: Stabilization of MEK1-CRAF complex assay (AlphaLISA). In kind it is binding. The method, then:
MEK1 was diluted to 4 nM, and nickel chelate donor beads and glutathione acceptor beads were diluted to 80 μg/mL. CRAF was diluted to a top concentration of 160 nM, which was subsequently diluted to 80, 40, 20, 10, 5, 2.5, 1.25, and 0.625 nM through 1:2 serial dilution.
Exemplary MEK inhibitor compounds (0, 0.01, 0.1, or 1 μM) were added to a 384-AlphaPlate (PerkinElmer, 6008350) by a digital liquid dispenser (Tecan D300e) based on a total volume of 20 μL reaction mixture.
5 μL 4×MEK1 stock solution was added to wells A1-P20 by multichannel pipettes. The plate was sealed with clear olefin sealing tape (Thermo Scientific, 232701), centrifuged at 1000 rpm for 1 minute, and incubated at room temperature for 30 minutes.
5 μL 4×CRAF stock solution at different concentrations or 5 μL or 10 μL AlphaLISA buffer was added by multichannel pipettes. The plate was sealed, centrifuged at 1000 rpm for 1 minute, and incubated at room temperature for 60 minutes.
5 μL 4×glutathione acceptor beads were first added to all wells by multichannel pipettes. The ambient light was subsequently adjusted to <100 lux (light meter) before adding 5 μL 4×nickel chelate donor beads to the same wells. From this step on, the plate was covered with a black plate cover, centrifuged at 1000 rpm for 1 minute, and incubated at room temperature for 60 minutes.
Data were collected on a PHERAStar FSX (BMG LABTECH) using the AlphaLISA module (excitation: 680 nm, emission: 615 nm), with a gain of 3600. The excitation time was 0.30 seconds, and data collection started after a 0.04-second delay for a total integration time of 0.60 seconds.
The individual AlphaLISA counts of wells with exemplary MEK inhibitor compound were divided by the average AlphaLISA counts of wells without compound to obtain AlphaLISA signal/background ratio (S/B). The dissociation constant (KD) of MEK1-CRAF was calculated using nonlinear regression curve fit in GraphPad PRISM® 9.0 software.
On the technique in general: In Alpha technology, singlet oxygen from a donor bead excites a nearby acceptor bead.

For the next data set, the system named is pERK HCT-116 (G13D). In words: pERK HCT-116 (G13D) ICW (4 hour). In kind it is cell-based. Particulars: Homo sapiens, read-out: pERK HCT-116 (G13D) ICW (4 hour): Average IC50 (nM).
The next data set can be described thus: Pharmacokinetics in rat. Format: in vivo. The following applies: plasma, IV, 0.2 mg/kg.
Data set [1] deals with Phosphorylation of MEK1/2 in AsPC1 cells. In words: 4 hour pMEK1/2 MSD Assay. Format: cell-based. The following applies: Homo sapiens; AsPC1, 4 hours; read-out: pMEK IC50. The method, then:
AsPC1 cells were seeded at 10,000 cells/well overnight in 96-well plates, then treated with a 12-point dose response of compounds (Starting dose of 1000 nM and 3-fold dilution) for 4 hours. AsPC1 cells are a K-Ras mutant (G12D) pancreatic cancer cell line. Phosphorylation of MEK1/2 on residues Ser217 and Ser221 were detected using a MesoScale Discovery (MSD) assay (MSD Cat #K15129D-2). MEK1/2 phosphorylation levels were normalized to total MEK1/2 protein detected in each well on the same MSD plate. IC50 values were determined by fitting a variable slope, four parameters curve to the compound concentration to normalized Phospho-MEK1/2 relationship.

The nature of data set [2]: Cassette pharmacokinetics studies in mice. In kind it is in vivo. The following applies: male, Balb/c, plasma, Mouse. Summed up: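 Male Balb/c mice (3 per route) received cassette doses in 5% DMSO/95% PEG400 at 2 mg/kg IV (1 mg/kg where IV*) or 5 mg/kg PO. Plasma sampled to 24 h, acetonitrile-precipitated with internal standard, quantified by HPLC/MS/MS against 0.5-1,000 ng/mL standards.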

The target of a further data set is uMEK/BRAF (Homo sapiens (Human), UniProt Q02750). Description: MEK-RAF Binding Assay (uMEK/BRAF HTRF). (Time-resolved FRET reads energy transfer from a long-lived donor to a nearby acceptor.)
A further data set concerns cancer cell lines. In words: In vitro MEK inhibitor drug combinations (Cell Titer Glo, Loewe synergy). In kind it is cell-based. Particulars: combination with I-2; NCI-H358, NCI-H1373, NCI-H2122, MiaPACA2, NCI-H2030; 5 days. The method, then:
Cell viability was determined by Cell Titer Glo assay. […] A normalized Loewe sum of synergy score of >10 was considered synergistic, <10, but >−10 additive, and <−10 antagonistic.

MEK1-CRAF complex, sequence (Q02750 whole entry, looked up): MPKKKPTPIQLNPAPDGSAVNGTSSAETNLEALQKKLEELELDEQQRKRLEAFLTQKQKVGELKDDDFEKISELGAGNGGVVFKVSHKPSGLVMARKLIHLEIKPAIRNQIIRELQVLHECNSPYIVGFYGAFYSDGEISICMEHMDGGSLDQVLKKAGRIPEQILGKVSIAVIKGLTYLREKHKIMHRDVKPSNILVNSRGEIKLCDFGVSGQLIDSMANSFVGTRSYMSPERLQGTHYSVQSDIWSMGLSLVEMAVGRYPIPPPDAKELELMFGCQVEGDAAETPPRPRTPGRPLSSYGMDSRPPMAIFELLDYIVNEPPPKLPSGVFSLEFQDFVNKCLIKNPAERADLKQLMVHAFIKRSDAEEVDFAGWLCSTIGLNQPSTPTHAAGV
MEK1-CRAF complex, sequence (P04049 whole entry partner, looked up): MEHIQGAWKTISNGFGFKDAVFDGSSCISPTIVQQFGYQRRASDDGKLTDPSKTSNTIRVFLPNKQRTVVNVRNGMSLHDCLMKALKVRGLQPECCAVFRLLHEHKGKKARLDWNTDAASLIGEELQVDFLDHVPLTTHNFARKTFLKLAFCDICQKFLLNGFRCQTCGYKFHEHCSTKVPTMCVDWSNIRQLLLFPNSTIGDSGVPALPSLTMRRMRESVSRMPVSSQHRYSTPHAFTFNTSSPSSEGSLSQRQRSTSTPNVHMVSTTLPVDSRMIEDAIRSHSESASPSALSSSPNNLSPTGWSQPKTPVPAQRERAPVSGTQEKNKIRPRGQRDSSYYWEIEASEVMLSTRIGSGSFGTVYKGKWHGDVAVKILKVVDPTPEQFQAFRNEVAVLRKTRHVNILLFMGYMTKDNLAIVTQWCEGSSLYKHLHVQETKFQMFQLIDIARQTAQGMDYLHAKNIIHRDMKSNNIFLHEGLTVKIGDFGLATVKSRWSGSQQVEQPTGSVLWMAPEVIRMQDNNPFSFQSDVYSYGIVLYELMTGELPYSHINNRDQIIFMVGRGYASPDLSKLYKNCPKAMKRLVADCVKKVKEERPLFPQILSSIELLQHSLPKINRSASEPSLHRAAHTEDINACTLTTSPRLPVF
uMEK/BRAF, sequence (Q02750 whole entry): as the sequence (Q02750 whole entry, looked up) above

As to `CNS(=O)(=O)Nc1cccc(Oc2c(C(=O)NC3CC3)c(Nc3ccc(I)cc3F)n(C)c(=O)c2C)c1OC` [Compound I-1], the “KD Ratio (mean), compound to DMSO” value on MEK1-CRAF complex (compound 0.01 μM) amounted to 0.80; on MEK1-CRAF complex (compound 0.1 μM), 0.55; at MEK1-CRAF complex (compound 1 μM), 0.42. Further, the IC50 (in the data set with pERK HCT-116 (G13D); in data set [1]; at uMEK/BRAF) was under 100 nM in each case. For the same compound, the AUC(0-inf) in “Pharmacokinetics in rat” was determined as 107 ng·h/mL; in data set [2] (IV, 2 mg/kg) it was 455 ng·h/mL; in data set [2] (PO, 5 mg/kg), 635 ng·h/mL. Moreover, the area under the curve AUC(0-t) in “Pharmacokinetics in rat” came to 100 ng·h/mL; in data set [2] (IV, 2 mg/kg), 452 ng·h/mL; in data set [2] (PO, 5 mg/kg), 614 ng·h/mL. Moreover, the clearance amounted to 31.9 mL/min/kg in the data set “Pharmacokinetics in rat” and 74.9 mL/min/kg in data set [2] (IV, 2 mg/kg). The half-life is 144 min in “Pharmacokinetics in rat”; 100 min in data set [2] (IV, 2 mg/kg); 696 min in data set [2] (PO, 5 mg/kg). Moreover, the Vd in “Pharmacokinetics in rat” (read-out: Vdss) was found to be 4.2 L/kg; in data set [2] (IV, 2 mg/kg, read-out: Vdss) it was 3.2 L/kg. The compound also returned a Cmax in data set [2] (PO, 5 mg/kg) of 432 ng/mL. The time to peak (Tmax) in data set [2] (PO, 5 mg/kg) was found to be 24 min.

Consider `C=CC(=O)N1CCN(c2nc(=O)n(-c3c(C)ccnc3C(C)C)c3nc(-c4c(O)cccc4F)c(F)cc23)[C@@H](C)C1` [Sotorasib], for which the “Loewe Synergy Score > 10” value in the data set with cancer cell lines is listed as 4/5 cell lines.

In general, IC50 refers to the concentration that inhibits the measured activity by half. In general, AUC(0-inf) refers to the area under the concentration-time curve extrapolated to infinity. In general, AUC(0-t) refers to the area under the concentration-time curve up to a stated or last time point. A low value points to low exposure. Broadly, the clearance is the volume of plasma or blood freed of the substance per unit of time. Broadly, the half-life is the time needed for the level to fall by half in the phase considered. The term Cmax denotes the peak of the concentration-time curve. What is called Tmax is the time at which the peak concentration occurs.
